{"source": "patent US20100144737A1", "about": "“METHODS FOR INHIBITING T HELPER CELL DIFFERENTIATION” (FibroGen, Inc., priority 2008, published 2010)", "key": {"[1]": {"tested_on": "activated T cells (PMBCs)", "assay": "IFN-γ and TNF-α levels ex vivo following T cell activation in vivo (peptidoglycan-polysaccharide polymer injection)", "set-up": "species or system Lewis rats", "conditions": "40 mg/kg oral gavage, days 28-44; PMBCs isolated day 44, anti-CD3, 72 h, ELISA", "experimental": "The effect of methods and compounds of the present invention on INF-γ and TNF-α expression following in vivo activation was examined as follows. In these experiments, in vivo T cell activation was first induced by eliciting an inflammatory reaction in rats by injection of peptidoglycan-polysaccharide polymers. An exemplary compound of the present invention was then administered to the animals. T cells were then isolated from the blood of the animals and analyzed ex vivo for IFN-γ and TNF-α secretion. Female Lewis rats (150-200 gm; Harlan, Indianapolis, Ind.) were injected intra-peritoneal with peptidoglycan-polysaccharide polymers (15 μg/gm body weight, Lee Laboratories, Grayson, Ga.). Animals were administered Compound A (40 mg/kg) via oral gavage on days 28, 30, 32, 35, 37, 39, 42, and 44 following peptidoglycan-polysaccharide polymer injection. Peripheral blood mononuclear cells (PMBCs) were isolated from the blood of the animals by Ficol gradient (BD Vacutainer CPT tubes) on day 44. Equal numbers of PMBCs (50,000 cells/well) were plated on culture dishes coated with anti-CD3 antibodies in RPMI-1640 media containing 10% serum, and the cells were cultured for 72 h. Supernatants from the cell cultures were tested for IFN-γ and TNF-α levels using commercially-available ELISA assays (R&D)."}, "naïve CD4+T Cells": {"tested_on": "naïve CD4+T Cells", "assay": "T helper cell synthesis of pro-inflammatory (IFN-γ) and anti-inflammatory (IL-5) cytokines", "format": "cell-based, human", "conditions": "seven days", "experimental": "To examine the effect of compounds and methods of the present invention on T helper cell synthesis of pro-inflammatory and anti-inflammatory cytokines, the following studies were performed. Human cord blood naive CD4+T Cells (AllCells LLC, Emeryville, Calif.) were stimulated (i.e., T cell receptor (TCR) stimulation) by seeding into 96-well culture dishes coated with 5 μg/ml anti-CD3 antibody (clone UCHT1, R&D Systems, Minneapolis, Minn.), and 5 μg/ml anti-CD28 antibody (clone ANC28.1/D10, Ancell Corporation, Bayport, Minn.), and cultured at 37° C., 5% CO2 in RPMI-1640 (Mediatech Inc., Hemdon, Va.) containing 1% FBS, 1 U/ml penicillin-1 μg/ml streptomycin (Invitrogen Corporation, Carlsbad, Calif.), and 50 U/ml IL-2 (Roche Diagnostics Corporation, Indianapolis, Ind.). At time of seeding, cells were treated according to one of the following conditions: 1) media alone (Con); 2) 10 ng/ml IL4, 10 μg/ml anti-IFN-γ antibody, and 10 μg/ml anti-IL-12 antibody (R&D Systems, Minneapolis, Minn.); or 3) 2 ng/ml IL-12 and 10 μg/ml anti-IL-4 antibody. […] The cell-conditioned media was collected and analyzed for IFN-γ levels (a pro-inflammatory cytokine) and IL-5 levels (an anti-inflammatory cytokine) using MS2400 Human Tissue Culture Kits (MesoScale Technologies, Gaithersburg, Md.) according to the manufacturer's instructions."}, "naïve T helper cells": {"tested_on": "naïve T helper cells", "assay": "Th1 cell differentiation: IFN-γ secretion after second and third TCR stimulation following washout", "format": "cell-based, human", "experimental": "The effectiveness of compounds of the present invention at reducing Th1 differentiation was examined as follows. Th1 differentiation was induced by culturing anti-CD3 stimulated T cells in the presence of exogenous IL-12. Human cord blood naive T helper cells (AllCells LLC, Emeryville, Calif.) were stimulated (i.e., T cell receptor (TCR) stimulation) by seeding into 96-well culture dishes coated with 5 μg/ml anti-CD3 antibody (clone UCHT1, R&D Systems, Minneapolis, Minn.), and 5 μg/ml anti-CD28 antibody (clone ANC28.1/D10, Ancell Corporation, Bayport, Minn.), and cultured at 37° C., 5% CO2 in RPMI-1640 (Mediatech Inc., Hemdon, Va.) containing 1% FBS, 1 U/ml penicillin-1 μg/ml streptomycin (Invitrogen Corporation, Carlsbad, Calif.), and 50 U/ml IL-2 (Roche Diagnostics Corporation, Indianapolis, Ind.). At time of seeding, cells were cultured with media alone or with media containing 2 ng/ml IL-12 and 10 μg/ml anti-IL-4 to induce Th1 cell differentiation. […]\nThe cells were then collected, washed twice with RPMI-1640 media containing 1% FBS, and counted before equal numbers of cells per well were re-stimulated (second T cell receptor (TCR) stimulation following washout of all prior treatments) by re-seeding the cells into 96-well culture dishes coated with 5 μg/ml anti-CD3 antibody and 5 μg/ml anti-CD28 antibody. […] After 24 hours the conditioned media from the cells was collected and analyzed for IFN-γ levels using a MS2400 Tissue Culture Kit (MesoScale Technologies, Gaithersburg, Md.) according to the manufacturer's instructions.\nThirteen days after the second TCR stimulation described above, the cells were collected, washed twice with RPMI-1640 media containing 1% FBS, and counted before equal numbers of cells per well were stimulated a third time (third TCR stimulation) by re-seeding into 96-well culture dishes coated with 5 μg/ml anti-CD3 antibody and 5 μg/ml anti-CD28 antibody. […]\nIn another series of experiments, the effectiveness of compounds of the present invention at reducing Th1 differentiation was determined. […]"}}, "data": [{"smiles": "Cc1nc(C(=O)NCC(=O)O)c(O)c2ccc(Oc3ccccc3)cc12", "note": "[Compound A, [(4-Hydroxy-1-methyl-7-phenoxy-isoquinoline-3-carbonyl)-amino]-acetic acid]", "values": [{"measurement": "IFN-γ secretion from the activated T cells, measured ex vivo", "setting": "[1]", "result": "effective at decreasing"}, {"measurement": "TNF-α secretion from the activated T cells, measured ex vivo", "setting": "[1]", "result": "effective at decreasing"}, {"measurement": "IL-12-mediated increase in IFN-γ secretion", "setting": "naïve CD4+T Cells; 2 ng/ml IL-12 and anti-IL-4 antibody", "result": "reduced the IL-12-mediated increase in IFN-γ secretion"}, {"measurement": "IL-5 levels", "setting": "naïve CD4+T Cells; 10 ng/ml IL4, anti-IFN-γ and anti-IL-12 antibody, vs IL-4 alone", "result": "increased IL-5 levels"}, {"measurement": "IFN-γ secretion following the second TCR stimulation", "setting": "naïve T helper cells; compound present only during first TCR stimulation (seven days) with IL-12, 24 hours after re-stimulation", "result": "reduced IFN-γ secretion"}, {"measurement": "IFN-γ secretion after a third TCR stimulation", "setting": "naïve T helper cells; compound present only during first TCR stimulation with IL-12, thirteen days after the second stimulation, 24 hours", "result": "decreased IFN-γ secretion"}]}]}
